Assay results taken from patent publication US10287272B2, “Substituted indazole compounds as RORgammaT inhibitors and uses thereof” (Merck Sharp & Dohme Corp., priority 2015, dated 2019).

Tests used:
CAR = CAR (Homo sapiens (Human), UniProt Q14994); experiment: Nuclear hormone receptor selectivity assay (GAL4-NHR-LBD luciferase, HEK293); format: cell-based
Method: (§1) In the assay system used, an activated GAL4-nuclear hormone receptor (NHR) fusion construct binds to an upstream activation sequence (UAS) and drives a luciferase reporter gene. […]
(§2) HEK293 cells were transfected with GAL4-NHR-LBD construct (pcDNA3.1neo) and the pGL4.31 GAL4-luciferase reporter construct (Promega) and incubated overnight at 37° C. and 5% CO2. After 16-24 hours, cells were harvested and plated at 20 μL (10,000 cells)/well in tissue-culture treated 384 well plate. […] Next, plates are spun briefly and incubated overnight at 37° C. and 5% CO2. […] In agonist mode, test compound was incubated directly with the cells. For receptors that are not constitutively active, a known agonist is also tested as a positive control.
(§3) After 16-24 hours, luciferase activity was measured. Plates and luciferase reagent (e.g. One-Glo® or Dual Glo®; Promega, Madison, Wis.) were brought to room temperature. Next, a 25 μL aliquot of luciferase reagent was added to each well. Plates were spun down briefly and incubated at room temperature for 10 minutes. The luciferase signal was measured on an Envision plate reader (Perkin Elmer) set to the ultra-sensitive luminescence setting.

FXR = FXR (Homo sapiens (Human), UniProt Q96RI1); experiment: as above; format: cell-based
Chain of FXR (Q96RI1 262-486, species assumed): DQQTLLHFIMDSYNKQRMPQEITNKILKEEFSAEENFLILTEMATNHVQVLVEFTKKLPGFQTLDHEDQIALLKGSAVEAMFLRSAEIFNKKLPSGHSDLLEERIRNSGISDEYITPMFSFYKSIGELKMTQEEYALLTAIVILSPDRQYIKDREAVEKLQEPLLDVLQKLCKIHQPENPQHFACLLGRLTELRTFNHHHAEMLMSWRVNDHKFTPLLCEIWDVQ
Method: as §1, §2, §3

LXRα = LXRα (Homo sapiens (Human), UniProt Q13133); experiment: as above; format: cell-based
Chain of LXRα (Q13133 209-447): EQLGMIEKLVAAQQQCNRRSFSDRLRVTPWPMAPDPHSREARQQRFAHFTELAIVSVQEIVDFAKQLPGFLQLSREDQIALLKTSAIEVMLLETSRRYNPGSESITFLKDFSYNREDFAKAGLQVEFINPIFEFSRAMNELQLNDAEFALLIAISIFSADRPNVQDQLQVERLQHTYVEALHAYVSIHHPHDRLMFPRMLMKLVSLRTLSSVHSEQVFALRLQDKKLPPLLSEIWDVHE
Method: as §1, §2, §3

LXRβ = LXRβ (Homo sapiens (Human), UniProt P55055); experiment: as above; format: cell-based
Chain of LXRβ (P55055 222-460): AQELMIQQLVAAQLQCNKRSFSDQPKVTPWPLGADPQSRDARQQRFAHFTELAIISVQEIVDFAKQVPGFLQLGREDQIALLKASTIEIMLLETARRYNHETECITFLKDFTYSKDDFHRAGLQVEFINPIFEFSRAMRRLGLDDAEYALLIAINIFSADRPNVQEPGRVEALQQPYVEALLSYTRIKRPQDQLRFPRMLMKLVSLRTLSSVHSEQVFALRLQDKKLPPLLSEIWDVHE
Method: as §1, §2, §3

PPARα = PPARα (Homo sapiens (Human), UniProt Q07869); experiment: as above; format: cell-based
Chain of PPARα (Q07869 239-466, species assumed): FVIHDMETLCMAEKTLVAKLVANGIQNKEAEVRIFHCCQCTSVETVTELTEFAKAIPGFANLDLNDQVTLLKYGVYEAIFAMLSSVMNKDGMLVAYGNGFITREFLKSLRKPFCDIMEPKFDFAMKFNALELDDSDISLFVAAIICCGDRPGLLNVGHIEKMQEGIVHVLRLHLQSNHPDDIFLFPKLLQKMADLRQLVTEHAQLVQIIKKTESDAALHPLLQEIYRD
Method: as §1, §2, §3

PPARβ = PPARβ (Homo sapiens (Human), UniProt Q03181); experiment: as above; format: cell-based
Chain of PPARβ (Q03181 211-439, species assumed): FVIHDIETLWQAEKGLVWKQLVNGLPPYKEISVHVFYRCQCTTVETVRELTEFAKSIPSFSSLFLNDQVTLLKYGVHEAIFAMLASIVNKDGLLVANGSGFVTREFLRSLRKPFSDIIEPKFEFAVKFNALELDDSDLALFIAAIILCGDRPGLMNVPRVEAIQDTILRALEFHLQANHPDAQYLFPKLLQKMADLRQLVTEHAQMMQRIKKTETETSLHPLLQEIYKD
Method: as §1, §2, §3

PPARγ = PPARγ (Homo sapiens (Human), UniProt P37231); experiment: as above; format: cell-based
Chain of PPARγ (P37231 238-503, species assumed): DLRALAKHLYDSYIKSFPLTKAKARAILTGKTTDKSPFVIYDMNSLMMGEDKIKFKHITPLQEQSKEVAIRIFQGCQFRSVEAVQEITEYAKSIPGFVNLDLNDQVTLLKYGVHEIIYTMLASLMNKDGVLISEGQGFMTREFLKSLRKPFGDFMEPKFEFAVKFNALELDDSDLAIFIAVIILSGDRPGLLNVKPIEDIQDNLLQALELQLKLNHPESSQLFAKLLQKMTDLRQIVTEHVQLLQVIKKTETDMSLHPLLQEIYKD
Method: as §1, §2, §3

PXR = PXR (Homo sapiens (Human), UniProt O75469); experiment: as above; format: cell-based; conditions: agonist mode
Chain of PXR (O75469 146-433, species assumed): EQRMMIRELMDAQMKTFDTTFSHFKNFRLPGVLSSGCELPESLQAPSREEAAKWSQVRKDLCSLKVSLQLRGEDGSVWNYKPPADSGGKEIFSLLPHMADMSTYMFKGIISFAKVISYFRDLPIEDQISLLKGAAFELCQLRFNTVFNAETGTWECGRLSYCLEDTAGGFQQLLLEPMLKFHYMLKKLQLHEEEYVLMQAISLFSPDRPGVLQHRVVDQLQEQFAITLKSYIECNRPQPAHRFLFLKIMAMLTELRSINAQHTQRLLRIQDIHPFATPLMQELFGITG
Method: as §1, §2, §3

RARα = RARα (Homo sapiens (Human), UniProt P10276); experiment: as above; format: cell-based
Chain of RARα (P10276 183-417, species assumed): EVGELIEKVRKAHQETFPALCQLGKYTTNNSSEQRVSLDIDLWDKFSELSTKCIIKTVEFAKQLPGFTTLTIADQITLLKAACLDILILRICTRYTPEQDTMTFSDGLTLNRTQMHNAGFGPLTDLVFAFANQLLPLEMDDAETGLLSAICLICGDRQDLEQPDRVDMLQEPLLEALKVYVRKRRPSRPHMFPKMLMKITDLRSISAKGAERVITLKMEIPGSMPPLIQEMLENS
Method: as §1, §2, §3

RARβ = RARβ (Homo sapiens (Human), UniProt P10826); experiment: as above; format: cell-based
Chain of RARβ (P10826 183-417, species assumed): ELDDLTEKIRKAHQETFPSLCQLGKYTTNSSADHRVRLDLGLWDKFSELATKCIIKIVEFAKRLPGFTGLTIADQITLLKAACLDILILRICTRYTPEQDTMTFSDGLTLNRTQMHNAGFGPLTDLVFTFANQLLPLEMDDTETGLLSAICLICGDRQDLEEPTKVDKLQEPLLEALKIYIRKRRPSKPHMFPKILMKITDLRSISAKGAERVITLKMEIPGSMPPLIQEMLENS
Method: as §1, §2, §3

RARγ = RARγ (Homo sapiens (Human), UniProt P13631); experiment: as above; format: cell-based
Chain of RARγ (P13631 185-419, species assumed): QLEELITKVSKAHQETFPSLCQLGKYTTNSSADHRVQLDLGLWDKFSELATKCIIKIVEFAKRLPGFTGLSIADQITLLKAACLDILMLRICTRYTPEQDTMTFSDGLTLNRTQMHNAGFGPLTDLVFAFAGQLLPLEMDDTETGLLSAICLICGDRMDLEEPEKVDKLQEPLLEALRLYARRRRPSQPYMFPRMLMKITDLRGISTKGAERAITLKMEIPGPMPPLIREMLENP
Method: as §1, §2, §3

RORα = RORα (Homo sapiens (Human), UniProt P35398); experiment: as above; format: cell-based; conditions: antagonist mode
Chain of RORα (P35398 272-510): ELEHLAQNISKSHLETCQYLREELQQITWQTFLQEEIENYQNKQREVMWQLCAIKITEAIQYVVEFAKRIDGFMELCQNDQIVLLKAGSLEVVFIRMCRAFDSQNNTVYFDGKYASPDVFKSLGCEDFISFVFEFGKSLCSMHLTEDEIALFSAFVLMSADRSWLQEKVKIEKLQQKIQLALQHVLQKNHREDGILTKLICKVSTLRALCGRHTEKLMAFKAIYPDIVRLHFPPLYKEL
Method: as §1, §2, §3

RORβ = RORβ (Homo sapiens (Human), UniProt Q92753); experiment: as above; format: cell-based; conditions: antagonist mode
Chain of RORβ (Q92753 222-460): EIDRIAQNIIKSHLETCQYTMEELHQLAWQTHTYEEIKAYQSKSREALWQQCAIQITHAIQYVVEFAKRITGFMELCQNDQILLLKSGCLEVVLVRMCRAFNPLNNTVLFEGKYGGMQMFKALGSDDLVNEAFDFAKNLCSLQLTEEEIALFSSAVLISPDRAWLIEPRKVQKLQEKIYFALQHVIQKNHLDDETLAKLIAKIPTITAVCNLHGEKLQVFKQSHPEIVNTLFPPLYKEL
Method: as §1, §2, §3

RXRα = RXRα (Homo sapiens (Human), UniProt P19793); experiment: as above; format: cell-based
Chain of RXRα (P19793 227-458): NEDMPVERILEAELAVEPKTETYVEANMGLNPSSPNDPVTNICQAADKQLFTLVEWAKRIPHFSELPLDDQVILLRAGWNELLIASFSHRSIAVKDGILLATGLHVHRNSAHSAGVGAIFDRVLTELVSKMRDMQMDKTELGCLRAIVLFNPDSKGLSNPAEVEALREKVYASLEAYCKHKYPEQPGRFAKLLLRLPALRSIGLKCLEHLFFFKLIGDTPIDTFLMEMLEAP
Method: as §1, §2, §3

TRα = TRα (Homo sapiens (Human), UniProt P10827); experiment: as above; format: cell-based
Chain of TRα (P10827 other isoform, or with tags, fused parts or gaps isoform P10827-2): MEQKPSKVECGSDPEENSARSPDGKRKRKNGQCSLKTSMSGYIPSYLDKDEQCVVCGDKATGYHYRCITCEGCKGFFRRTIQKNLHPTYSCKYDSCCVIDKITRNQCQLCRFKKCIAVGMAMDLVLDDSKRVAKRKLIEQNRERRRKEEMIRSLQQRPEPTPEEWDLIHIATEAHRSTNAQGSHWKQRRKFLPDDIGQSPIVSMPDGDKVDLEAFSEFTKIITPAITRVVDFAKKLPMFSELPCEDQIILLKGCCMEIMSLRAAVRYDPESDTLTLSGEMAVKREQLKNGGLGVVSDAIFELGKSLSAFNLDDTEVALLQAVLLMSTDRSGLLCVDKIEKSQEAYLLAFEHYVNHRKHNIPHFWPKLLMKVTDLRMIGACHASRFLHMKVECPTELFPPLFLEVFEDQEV
Method: as §1, §2, §3

TRβ = TRβ (Homo sapiens (Human), UniProt P10828); experiment: as above; format: cell-based
Chain of TRβ (P10828 217-461): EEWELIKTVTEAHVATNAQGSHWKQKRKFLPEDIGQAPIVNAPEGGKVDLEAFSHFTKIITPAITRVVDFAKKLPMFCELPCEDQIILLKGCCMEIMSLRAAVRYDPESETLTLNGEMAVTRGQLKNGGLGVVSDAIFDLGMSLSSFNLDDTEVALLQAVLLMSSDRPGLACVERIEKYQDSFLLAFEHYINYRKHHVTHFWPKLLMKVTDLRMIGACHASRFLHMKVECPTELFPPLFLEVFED
Method: as §1, §2, §3

VDR = VDR (Homo sapiens (Human), UniProt P11473); experiment: as above; format: cell-based
Chain of VDR (P11473 127-423, species assumed): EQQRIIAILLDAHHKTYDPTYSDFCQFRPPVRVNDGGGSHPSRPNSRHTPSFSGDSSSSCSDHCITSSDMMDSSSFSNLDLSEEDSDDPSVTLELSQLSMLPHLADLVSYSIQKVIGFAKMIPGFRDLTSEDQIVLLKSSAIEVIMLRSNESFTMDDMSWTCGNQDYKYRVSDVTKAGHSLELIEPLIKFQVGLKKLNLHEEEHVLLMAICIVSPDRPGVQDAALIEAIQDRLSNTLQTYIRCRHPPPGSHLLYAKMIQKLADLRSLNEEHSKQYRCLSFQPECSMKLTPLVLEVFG
Method: as §1, §2, §3

[1] = test system: BclxL gene expression in murine thymus; experiment: Murine thymic BclxL gene expression assay; format: in vivo, mouse; conditions: female C57BL/6 mice, oral 0.1-30 mg/kg, thymus collected 2 hours after dosing, qPCR; FIG. 3
Method: Animals were euthanized with carbon dioxide (CO2) at 2 hours after dosing, and thymi were collected and immediately placed on ice before processing.
Thymus tissue samples were mashed with syringe plungers in a 48-well, flat-bottom tissue culture plate. Cells were suspended in 1 mL phosphate buffered saline (PBS), and passed through a Falcon 70 μM cell strainer into 50-mL centrifuge tubes. A 200 μL aliquot of cells from each sample were transferred into a 96-well, round-bottom plate. The plate was centrifuged at 1200 rpm and 4° C., flicked to remove supernatant, and the cell pellets were frozen at −80° C. until further processing.
Initial further processing consisted of ribonucleic acid (RNA) isolation and complementary deoxyribonucleic acid (cDNA) synthesis.

[2] = test system: murine collagen-induced arthritis model; experiment: Murine collagen-induced arthritis model; format: in vivo, mouse; conditions: female DBA/1J mice, oral 3, 10 or 30 mg/kg twice daily; FIG. 4
Method: Female DBA/1J mice (Jackson Laboratories, 7-8 weeks old) were received and allowed to acclimate for about one week. On the day of immunization, an emulsion was freshly prepared by homogenizing equal volumes of Complete Freund's Adjuvant (CFA, Chondrex #7001) and a collagen type-2 solution (bovine source, Chondrex #20022) using a tissue homogenizer, on ice. A volume of 0.1 mL of this emulsion was injected subcutaneously into the base of the tail of each mouse, which was lightly anesthetized with isoflurane. Mice recovered from anesthesia were allowed food and water ad libitum.
Eighteen days after immunization, the mice were injected intraperitoneally with 40 μg of lipopolysaccaride (LPS, Sigma#L4005) in 0.2 mL saline, in order to help synchronize the disease progression in all animals. Seven days after LPS injection, the mice were assessed for knee joint swelling by measurement of each knee joint using digital calipers and computing total joint circumference. The total knee joint circumference of the 4 knee joints was then used to randomize mice into treatment groups of equal average circumference.
This dosing continued twice daily at 8- and 16-hour intervals for the duration of the study. As a positive control, one group of mice received 25 mg/kg Jak inhibitor (JAKi) tofacitinib once per day. Joints were measured 2-3 times per week.

[3] = antagonist mode, reference agonist at EC80

Chain of CAR (Q14994 109-352): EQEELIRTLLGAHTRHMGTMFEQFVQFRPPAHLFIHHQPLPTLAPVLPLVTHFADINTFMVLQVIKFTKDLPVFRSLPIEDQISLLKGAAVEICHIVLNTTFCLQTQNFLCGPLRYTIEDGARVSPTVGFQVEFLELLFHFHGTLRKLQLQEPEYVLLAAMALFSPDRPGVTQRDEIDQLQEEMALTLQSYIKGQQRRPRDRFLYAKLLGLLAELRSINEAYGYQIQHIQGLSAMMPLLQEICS

Compound: O=C(O)[C@@H]1CC=C(c2nn(C(=O)c3c(Cl)cccc3C3(C(F)(F)F)CC3)c3c2CC[C@@H](C(=O)N2CCC4(COC4)C2)C3)CC1 [Test Compound]
- EC50 (CAR; agonist mode): > 10 µM
- IC50 (CAR; [3]): > 10 µM
- EC50 (FXR; agonist mode): > 10 µM
- IC50 (FXR; [3]): > 10 µM
- EC50 (LXRα; agonist mode): > 10 µM
- IC50 (LXRα; [3]): > 10 µM
- EC50 (LXRβ; agonist mode): > 10 µM
- IC50 (LXRβ; [3]): > 10 µM
- EC50 (PPARα; agonist mode): > 10 µM
- IC50 (PPARα; [3]): > 10 µM
- EC50 (PPARβ; agonist mode): > 10 µM
- IC50 (PPARβ; [3]): > 10 µM
- IC50 (PPARγ; PPARγ, antagonist mode, reference agonist at EC80): > 10 µM
- EC50 (PPARγ; read-out: Agonist Mode EC50): 5.1 µM
- EC50 (PXR): 8.2 µM
- EC50 (RARα; agonist mode): > 10 µM
- IC50 (RARα; [3]): > 10 µM
- EC50 (RARβ; agonist mode): > 10 µM
- IC50 (RARβ; [3]): > 10 µM
- EC50 (RARγ; agonist mode): > 10 µM
- IC50 (RARγ; [3]): > 10 µM
- IC50 (RORα): > 10 µM
- IC50 (RORβ): > 10 µM
- EC50 (RXRα; agonist mode): > 10 µM
- IC50 (RXRα; [3]): > 10 µM
- EC50 (TRα; agonist mode): > 10 µM
- IC50 (TRα; [3]): 16 µM
- EC50 (TRβ; agonist mode): > 10 µM
- IC50 (TRβ; [3]): > 10 µM
- EC50 (VDR; agonist mode): > 10 µM
- IC50 (VDR; [3]): > 10 µM
- expression of BclxL in murine thymus [1]: dose-dependent decrease in the expression of BclxL in murine thymus
- total joint circumference [2]: dose-dependent decrease in total joint circumference
